We go through 1 molecule from US20060211672A1, “Use of estrogen receptor-beta selective agonists for radiation-or chemotherapy-induced mucositis and radiation cystitis” (Wyeth, priority 2005, published 2006).

The subject of the assay is radiation-induced mucositis. Description: Acute radiation model of oral mucositis in hamsters. The format is in vivo, Syrian Golden Hamsters. To be noted: for % Days with mucositis score ≧3 / Days with mucositis score ≧3: once daily beginning on day -1, 40 Gy radiation day 0, scored day 6 to 28; for Days with mucositis score ≧3: Total Days 240. An excerpt: The acute radiation model in hamsters has proven to be an accurate, efficient and cost-effective technique to provide a preliminary evaluation of anti-mucositis compounds (Sonis et al., Oral Surg Oral Med Oral Pathol 1990; 69(4):437-448). The course of mucositis in this model is well defined and results in peak scores approximately 14-16 Days following radiation. The acute model has little systemic toxicity, resulting in few hamster deaths which makes the acute model amenable for initial efficacy studies. The acute model has also been used to study specific mechanistic elements in the pathogenesis of mucositis.
Forty (40) Male LVG Syrian Golden Hamsters (Charles River Laboratories), aged 5 to 6 weeks, with average body weight of 116.3 g at study commencement, were used. Animals were individually numbered using an ear punch and housed 10 animals per cage. Animals were fed with a Purina Labdiet® 5061 rodent diet and water was provided ad libitum. Animals were acclimatized for two days prior to study commencement.
Animals were randomly and prospectively divided into four (4) treatment groups prior to irradiation. Mucositis was induced using a standardized acute radiation protocol, where a single dose of radiation (40 Gy/dose) was administered to all animals on day 0. Radiation was generated with a 160 kilovolt potential (15-ma) source at a focal distance of 30 cm, hardened with an AI filtration system. Irradiation targeted the left buccal pouch mucosa at a rate of 3.2 Gy/minute. Prior to irradiation, animals were anesthetized with an intra-peritoneal injection of Ketamine (160 mg/kg) and Xylazine (8 mg/kg). The left buccal pouch was everted, fixed and isolated using a lead shield.
Controls or 3-(3-Fluoro-4-hydroxy-phenyl)-7-hydroxy-naphthalene-1-carbonitrile (Compound 1) were given in the volumes and by the routes described in Table 1 and dosing began the day before radiation treatment.
The grade of mucositis was scored, beginning day 6, and for every second day thereafter, through and including day 28. For the evaluation of mucositis, the animals were anesthetized with an inhalation anesthetic, and the left pouch everted. Mucositis was scored visually by comparison to a validated photographic scale, ranging from 0 for normal, to 5 for severe ulceration (clinical scoring). In descriptive terms, this scale is defined as follows: Score: Description: • 0 Pouch completely healthy. No erythema or vasodilation. • 1 Light to severe erythema and vasodilation. No erosion of mucosa. • 2 Severe erythema and vasodilation. Erosion of superficial aspects of mucosa leaving denuded areas. Decreased stippling of mucosa. • 3 Formation of off-white ulcers in one or more places. Ulcers may have a yellow/gray appearance due to pseudomembrane. Cumulative size of ulcers should equal about ¼ of the pouch. Severe erythema and vasodilation. • 4 Cumulative seize of ulcers should equal about ½ of the pouch. Loss of pliability. Severe erythema and vasodilation. • 5 Virtually all of pouch is ulcerated. Loss of pliability (pouch can only partially be extracted from mouth)
A score of 1-2 is considered to represent a mild stage of the disease, whereas a score of 3-5 is considered to indicate moderate to severe mucositis.
The effect on mucositis of each route of administration of Compound 1 compared to vehicle was assessed by determining the difference in the number of days hamsters in each group have ulcerative (score ≧3) mucositis. Statistical significance was assessed by a Chi-squared test and p<0.05 was considered statistically significant.

Turning to `N#Cc1cc(-c2ccc(O)c(F)c2)cc2ccc(O)cc12` [Compound 1, 3-(3-Fluoro-4-hydroxy-phenyl)-7-hydroxy-naphthalene-1-carbonitrile], where the note is “Gavage, 10 mg/kg”, the “% Days with mucositis score ≧3” value was found to be 44% and the “Days with mucositis score ≧3” value was found to be 106 days. Further, for the setting “Topical (intrapouch), 500 nM”, the “% Days with mucositis score ≧3” value stood at 30% and the “Days with mucositis score ≧3” value worked out at 72 days. The “change in the number of days hamsters had ulcerative (score ≧3) mucositis, in words” value (administered by gavage, vs vehicle) was “no significant change”. For the same molecule, the “number of days animals experienced ulcerative mucositis, in words” value (administered topically (into the pouch), vs vehicle) is recorded as “significantly reduced”.
